Measured values as given in patent US20230322815A1, “NOVEL COMPOUNDS AND THERAPEUTIC USES THEREOF” (University of Huddersfield, priority 2020, published 2023).

Key:
chick embryo [1] = assay: Embryonic toxicity, HCT116 in ovo study; format: in vivo, chick (White Leghorn); settings: for embryo tolerability: all doses tested, no statistically significant difference to solvent control; for % Alive / % Dead / Alive (embryos at E18) / Dead (embryos at E18): HCT116 study
Description: (§1) 10^6 tumor cells (H460, HT29 or HCT116) were grafted onto the upper chorioallantoic membrane (CAM) of the developing chick embryo on embryonic day 9 (E9). Access to the upper CAM was through a small hole drilled through the eggshell of fertilized White Leghorn eggs (into the air sac) on E9 (15 eggs per experimental group).
(§2) 100 μl of freshly prepared experimental compound, vehicle control or standard-of-care (SoC) drug at their working concentrations were pipetted onto the tumor graft at E11, E13, E15 and E17. On day E18, the upper CAM (with tumor) was removed, washed by PBS buffer and then directly transferred in PFA (fixation for 48 hrs). After that, tumors were carefully cut away from normal CAM tissue and weighed.
(§3) Embryonic viability was checked daily. The number of dead embryos was also counted on E18, to evaluate treatment-induced embryo toxicity.

[2] = biological target: recombinant Src (p-Y527, p-Y416) (Homo sapiens, UniProt P12931); assay: Western blot of purified recombinant kinase after exposure to complex; format: biochemical; settings: 50 μM complex, 4 hours, in the presence of ATP
Description: FIG. 10. Western blot analysis of purified recombinant Src and AMPK following exposure to [L2Zn3]^6+ and [L2Cu3]^6+. Purified enzymes were incubated with complexes (50 μM) for 4 hours in the presence of ATP prior to analysis.
(§4) Protein lysates and recombinant proteins were resolved on 15% SDS polyacrylamide gels. Proteins were electroblotted onto nitrocellulose membrane by wet transfer in 1×Tris Glycine buffer (Biorad) at 35 mA overnight at room temperature (Allison et al., 2014). After blocking of membranes, these were incubated with primary antibody overnight at 4° C. before addition of rabbit or mouse secondary antibody (HRP-conjugated) for 1 h at room temperature and development of blots by enhanced chemiluminescence. Primary antibodies were: anti-Src (total) (Cell Signalling Technology #2123 1:1000), anti-phosphorylated Src (Y527) (Cell Signalling Technology #21055 1:1000), anti-phosphorylated Src (Y416) (Cell Signalling Technology #69435 1:1000), anti-AMPKα (total) (Cell Signalling Technology #2532 1:1000), anti-phosphorylated AMPKα (T172) (Cell Signalling Technology […] 1:1000), anti-phospho-Tyr (pan) (Cell Signalling Technology #8954 1:2000), anti-p53 (Santa Cruz, DO-1 clone, 1:1000), anti-β-actin (Merck MAB1501, 1:40,000). Quantification of signals was performed by densitometry using Image J software.
For Src, effects of the complexes on two key regulatory phospho-amino acids were examined, Y527 and Y416 (FIG. 10). […] The decrease in p-Y527 is consistent with the selective phosphatase activity of [L2Zn3]^6+.

chick embryo [3] = assay: Embryonic toxicity, H460 in ovo study; format: in vivo, chick (White Leghorn); settings: for embryo tolerability: all doses tested, no statistically significant difference to solvent control; for % Alive / % Dead / Alive (embryos at E18) / Dead (embryos at E18): H460 study
Description: as §1, §2, §3

[4] = Direct ATP hydrolysis by the complex (mass spectroscopy); settings: ATP incubated with complex alone
Excerpt: There are several potential mechanisms which could lead the observed kinase inhibition ‘readout’ of this screen including, i) direct ATP hydrolysis by the complex(es) and differing Km of the kinases for ATP, and, ii) dephosphorylation of the peptide substrate by the phosphatase activity of the Zn^2+ complex resulting in cycles of peptide phosphorylation by active recombinant enzyme and dephosphorylation by the complex.

HCT116 cancer cells = assay: Immunoblot of cellular proteins after treatment; format: cell-based, human; settings: 5 μM, 40 h
Description: (§5) FIG. 12. Immunoblots showing the differential effects of [L2Cu3]^6+ and [L2Zn3]^6+ treatment of HCT116 cancer cells and ARPE19 non-cancer cells on key cellular proteins associated with cellular and metabolic stress. Representative immunoblot images of the indicated proteins following cell exposure to 5 μM [L2Cu3]^6+ or [L2Zn3]^6+ for 40 h. Tyrosine phosphorylated proteins are indicated using a pan-phospho-Tyr antibody; β-actin as a loading control.
as §4

ARPE19 non-cancer cells = assay: Immunoblot of cellular proteins after treatment; format: cell-based, human; settings: 5 μM, 40 h
Description: as §5, §4

AMPK = assay: Cell-free kinase screen; format: biochemical, human; settings: 10 μM complex
Description: FIG. 9. Effects of [L2Zn3]^6+ and [L2Cu3]^6+ on the activity of purified human kinases. a,b, Percentage inhibition of the indicated kinases by [L2Zn3]^6+ (a) and [L2Cu3]^6+ (b) respectively at a concentration of 10 μM; full results are presented in the ESI. c,d, Kinases whose activity is stimulated by [L2Zn3]^6+ (c) or [L2Cu3]^6+ (d) complexes. e,f, Kinome map showing kinases inhibited (red) or stimulated (green) by [L2Zn3]^6+ (e) or [L2Cu3]^6+ (f). III ustration reproduced courtesy of Cell Signalling Technology Inc (www.cellsignal.com)
FIG. 16. The effect of [L2Zn3]^6+ and [L2Cu3]^6+ on the activity of recombinant human kinases. The compounds were submitted to the MRC Protein Phosphorylation and Ubiquitination Unit International Centre for Kinase Profiling (University of Dundee) and tested at a concentration of 10 μM against 140 human kinases (Premier Screen).
Given the ability of the Zn^2+ complex to dephosphorylate amino acids serine, tyrosine and threonine (FIG. 6) and the Cu^2+ complex to bind phenyl phosphate (FIG. 3), it was examined whether the complexes affect the activity of kinases. This was assessed in a cell-free screen of 140 kinases using purified recombinant human kinases and substrate peptides incubated in the presence of ^33P ATP and 10 μM complex or solvent control. […]

[5] = dose [1]: L2Zn3 70.5 μM, L2Cu3 75 μM
[6] = dose [2]: L2Zn3 141 μM, L2Cu3 150 μM
[7] = dose [3]: L2Zn3 282 μM, L2Cu3 300 μM
[8] = dose [1]: L2Zn3 54 μM, L2Cu3 42 μM
[9] = dose [2]: L2Zn3 108 μM, L2Cu3 84 μM
[10] = dose [3]: L2Zn3 216 μM, L2Cu3 168 μM

recombinant Src (p-Y527, p-Y416), sequence (P12931 whole entry): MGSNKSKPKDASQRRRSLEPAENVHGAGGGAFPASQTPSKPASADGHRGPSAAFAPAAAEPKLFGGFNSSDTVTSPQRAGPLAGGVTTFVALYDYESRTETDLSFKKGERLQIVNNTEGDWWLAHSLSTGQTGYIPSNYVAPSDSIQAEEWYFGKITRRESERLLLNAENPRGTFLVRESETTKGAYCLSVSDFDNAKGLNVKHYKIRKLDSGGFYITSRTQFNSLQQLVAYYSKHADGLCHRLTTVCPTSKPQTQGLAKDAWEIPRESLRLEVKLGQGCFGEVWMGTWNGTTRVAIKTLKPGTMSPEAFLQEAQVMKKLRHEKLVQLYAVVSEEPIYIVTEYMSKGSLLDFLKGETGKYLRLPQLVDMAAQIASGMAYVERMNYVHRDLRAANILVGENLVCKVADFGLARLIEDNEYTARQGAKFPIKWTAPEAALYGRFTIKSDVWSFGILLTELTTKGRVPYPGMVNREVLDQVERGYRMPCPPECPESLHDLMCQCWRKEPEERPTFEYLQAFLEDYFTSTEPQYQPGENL

Compound	embryo tolerability (chick embryo [1])	% Alive (chick embryo [1]; [5]) [%]	% Dead (chick embryo [1]; [5]) [%]	Alive (embryos at E18) (chick embryo [1]; [5])	Dead (embryos at E18) (chick embryo [1]; [5])	% Alive (chick embryo [1]; [6]) [%]	% Dead (chick embryo [1]; [6]) [%]	Alive (embryos at E18) (chick embryo [1]; [6])	Dead (embryos at E18) (chick embryo [1]; [6])	% Alive (chick embryo [1]; [7]) [%]	% Dead (chick embryo [1]; [7]) [%]	Alive (embryos at E18) (chick embryo [1]; [7])	Dead (embryos at E18) (chick embryo [1]; [7])	embryo tolerability (chick embryo [3])	% Alive (chick embryo [3]; [8]) [%]	% Dead (chick embryo [3]; [8]) [%]	Alive (embryos at E18) (chick embryo [3]; [8])	Dead (embryos at E18) (chick embryo [3]; [8])	% Alive (chick embryo [3]; [9]) [%]	% Dead (chick embryo [3]; [9]) [%]	other results
[Zn+2].[Zn+2].[Zn+2].c1ccc(-c2csc(NCCN(CCNc3nc(-c4ccccn4)cs3)CCNc3nc(-c4ccccn4)cs3)n2)nc1.c1ccc(-c2csc(NCCN(CCNc3nc(-c4ccccn4)cs3)CCNc3nc(-c4ccccn4)cs3)n2)nc1 [[L2Zn3]^6+]	well tolerated	100	0	15	0	86.67	13.33	13	2	80.00	20.00	12	3	well tolerated	92.86	7.14	13	1	76.92	23.08	decrease in p-Y527 relative to total Src levels [2]: ~30%; increase in p-Y416 levels [2]: ~5 fold; Alive (embryos at E18) (chick embryo [3]; [9]): 10; Dead (embryos at E18) (chick embryo [3]; [9]): 3; % Alive (chick embryo [3]; [10]): 90.91%; % Dead (chick embryo [3]; [10]): 9.09%; Alive (embryos at E18) (chick embryo [3]; [10]): 10; Dead (embryos at E18) (chick embryo [3]; [10]): 1; hydrolysis of ATP [4]: little or no hydrolysis of ATP; cellular p-T172 AMPKα relative to total AMPKα levels (HCT116 cancer cells): increased; increase in p53 levels (HCT116 cancer cells): ~2.7 fold; decrease in total levels of Tyr-phosphorylated proteins (HCT116 cancer cells; pan phospho-tyrosine antibody): ~10%; p53 levels (ARPE19 non-cancer cells): decreased; effect on AMPK activity in the kinase screen (AMPK): inhibition of AMPK
[Cu+2].[Cu+2].[Cu+2].c1ccc(-c2csc(NCCN(CCNc3nc(-c4ccccn4)cs3)CCNc3nc(-c4ccccn4)cs3)n2)nc1.c1ccc(-c2csc(NCCN(CCNc3nc(-c4ccccn4)cs3)CCNc3nc(-c4ccccn4)cs3)n2)nc1 [[L2Cu3]^6+]	well tolerated	100	0	14	0	86.67	13.33	13	2	86.67	13.33	13	2	well tolerated	85.71	14.29	12	2	92.86	7.14	detection of p-Y416 [2]: could not be detected; Alive (embryos at E18) (chick embryo [3]; [9]): 13; Dead (embryos at E18) (chick embryo [3]; [9]): 1; % Alive (chick embryo [3]; [10]): 85.71%; % Dead (chick embryo [3]; [10]): 14.29%; Alive (embryos at E18) (chick embryo [3]; [10]): 12; Dead (embryos at E18) (chick embryo [3]; [10]): 2; hydrolysis of ATP [4]: little or no hydrolysis of ATP; increase in p53 levels (HCT116 cancer cells): ~1.7 fold; p53 levels (ARPE19 non-cancer cells): decreased; effect on AMPK activity in the kinase screen (AMPK): inhibition of AMPK
